From ChEMBL document CHEMBL1201862, “PubChem BioAssay data set” (2004) come the findings set out here.

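Values below derive from 48-hour exposures of cells grown in 96-well plates, with endpoints linearly interpolated between the two concentrations bracketing the appropriate inhibition level. GI50 = concentration required for 50% inhibition of growth.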 The source made the active and inactive calls. Cut-off read from the data, not from the text of the source: active = GI50 up to about 1.1 µM and inactive = higher.

Test in all cases: NCI-60 cell line screen, 48 h
Assay [1] deals with NCI-H460.
The subject of assay [2] is DU-145.
Assay [3] concerns OVCAR-5.
Assay [4] deals with SN12C.
Assay [5] deals with SR.
Assay [6] has as its system K562.
The test system of assay [7] is SF-268.
Assay [8] deals with CCRF-CEM.
Assay [9] concerns T47D.
The subject of assay [10] is LOX IMVI.
Assay [11] relates to UO-31.
Assay [12] concerns SNB-19.
Assay [13] deals with BT-549.
For assay [14], the system named is SK-OV-3.
Assay [15] relates to NCI-H23.
The test system of assay [16] is KM12.
Assay [17] deals with UACC-257.
Assay [18] concerns SF-295.
Assay [19] concerns HCT-116.
The subject of assay [20] is MCF7.

For `Cc1cc(O)c(C(C)C)cc1/N=C/c1ccccc1O`, the GI50 in assay [1] was 5.3 µM (inactive); in assay [2] it was 5.53 µM (inactive); in assay [3], 20.6 µM (inactive); in [4] it was 4.54 µM (inactive); in assay [5], 1.15 µM (inactive); in assay [6], 1.26 µM (inactive). The GI50 in [7] is 6.21 µM (inactive); in assay [8] it was 0.0242 µM (active); in assay [9], 0.36 µM (active); in assay [10], 3.13 µM (inactive); in assay [11], 13.2 µM (inactive); in assay [12] it was 17.5 µM (inactive). For the same molecule, the GI50 was 8.3 µM (inactive) in assay [13]; 15.2 µM (inactive) in assay [14]; 15.2 µM (inactive) in assay [15]; 3.76 µM (inactive) in assay [16]; 9.35 µM (inactive) in [17]; 13.1 µM (inactive) in assay [18]. The GI50 was 4 µM (inactive) in [19] and 7.26 µM (inactive) in [20].
For `CC(=O)OC1CC2(C)C(=CC1C1SCCS1)CCC1C2CCC2(C)C(OC(C)=O)CCC12` (stereo not given), the GI50 in assay [1], in assay [2], in assay [3], in assay [4], in [5] and in [6] was > 100 µM (inactive) in each case. Moreover, the GI50 is 26.5 µM (inactive) in assay [7]; > 100 µM (inactive) in assay [8]; > 100 µM (inactive) in assay [9]; > 100 µM (inactive) in assay [10]; > 100 µM (inactive) in assay [11]; 37.1 µM (inactive) in assay [12]. The GI50 is > 100 µM (inactive) in [13]; 27.9 µM (inactive) in [14]; > 100 µM (inactive) in [15]; > 100 µM (inactive) in assay [16]; > 100 µM (inactive) in [17]; 23.4 µM (inactive) in assay [18]. Also, the GI50 is > 100 µM (inactive) in assay [19] and 68.4 µM (inactive) in assay [20].
As to `CCOC(=O)CCC(C(=O)OCC)n1nnc2cc(Nc3c(C)[n+]([O-])c4cc(F)c(OCC)cc4[n+]3[O-])ccc21` (stereo not given), the GI50 in assay [1], in assay [2], in assay [3], in assay [4], in assay [5] and in [6] was > 100 µM (inactive) each time. Further, the GI50 was 25.5 µM (inactive) in [7]; > 100 µM (inactive) in assay [8]; > 100 µM (inactive) in assay [9]; > 100 µM (inactive) in [10]; > 100 µM (inactive) in assay [11]; 34.8 µM (inactive) in assay [12]. Besides, the GI50 in assay [13] is > 100 µM (inactive); in assay [14], > 100 µM (inactive); in [15] it was 67.8 µM (inactive); in assay [16], > 100 µM (inactive); in assay [17], > 100 µM (inactive); in [18], 40.9 µM (inactive). The GI50 in assay [19] and in [20] was > 100 µM (inactive) in each case.
